Source: ChEMBL document CHEMBL1201862, “PubChem BioAssay data set” (2004)
Activity calls are given as the source filed them.

Key:
[1] = biological target: T1, E3 ubiquitin-protein ligase XIAP (Homo sapiens, UniProt P98170); assay: small molecules displacing peptide from XIAP – biochemical, IAP family, fluorescence polarization (AID 1018); assay type: functional
[2] = biological target: T1, E3 ubiquitin-protein ligase XIAP; assay: Counter Screen using XIAP-Bir3 for Chemical Antagonists of Bir1/2 domains of IAP-family anti-apoptotic proteins. [Related pubchem assays (depositor defined):AID1018, AID1449, AID1514, AID1638, AID1749, AID1750, AID488957, AID488963]
[3] = CCR5-tropic HIV-1 fusion blockers – cell-based, CCR5-tropic Env, dose response (AID 2279); assay type: functional
[4] = biological target: Induced myeloid leukemia cell differentiation protein Mcl-1 (Homo sapiens, UniProt Q07820); assay type: functional
Sequence of Induced myeloid leukemia cell differentiation protein Mcl-1 (Q07820 whole entry): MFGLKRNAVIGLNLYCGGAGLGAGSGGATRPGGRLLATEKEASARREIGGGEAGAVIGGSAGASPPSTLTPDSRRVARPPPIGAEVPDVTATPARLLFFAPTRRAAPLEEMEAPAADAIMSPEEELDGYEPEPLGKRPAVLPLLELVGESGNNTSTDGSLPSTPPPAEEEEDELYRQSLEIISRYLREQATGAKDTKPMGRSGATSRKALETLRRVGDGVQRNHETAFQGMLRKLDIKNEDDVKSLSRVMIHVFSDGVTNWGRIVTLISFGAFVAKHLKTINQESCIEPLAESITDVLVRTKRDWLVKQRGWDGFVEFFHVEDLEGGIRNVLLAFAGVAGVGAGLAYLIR

[5] = biological target: T2, Long-chain-fatty-acid--AMP ligase FadD28 (Mycobacterium tuberculosis, UniProt P9WQ59); assay: Fluorescence polarization aasay to screen for inhibitors that compete for the binding of FadD28 to a bisubstrate Measured in Biochemical System Using Plate Reader - 2147-01_Inhibitor_Dose_CherryPick_Activity.; assay type: functional, Mycobacterium tuberculosis H37Rv
T2 sequence (P9WQ59 whole entry): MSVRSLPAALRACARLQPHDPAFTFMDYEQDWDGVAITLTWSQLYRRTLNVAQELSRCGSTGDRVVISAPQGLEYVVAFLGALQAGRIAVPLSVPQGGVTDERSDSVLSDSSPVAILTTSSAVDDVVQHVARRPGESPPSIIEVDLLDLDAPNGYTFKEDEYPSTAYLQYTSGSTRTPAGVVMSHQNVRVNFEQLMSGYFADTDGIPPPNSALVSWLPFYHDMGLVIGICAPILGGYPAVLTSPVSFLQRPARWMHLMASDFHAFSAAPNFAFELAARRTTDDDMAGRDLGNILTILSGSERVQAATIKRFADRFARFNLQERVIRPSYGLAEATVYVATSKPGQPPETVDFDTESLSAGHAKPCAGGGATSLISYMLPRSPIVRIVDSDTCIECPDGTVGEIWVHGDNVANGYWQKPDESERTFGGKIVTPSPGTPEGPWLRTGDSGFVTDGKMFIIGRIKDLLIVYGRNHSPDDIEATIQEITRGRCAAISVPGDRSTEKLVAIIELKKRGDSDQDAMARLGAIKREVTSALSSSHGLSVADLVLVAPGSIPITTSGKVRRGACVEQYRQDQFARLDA

[6] = biological target: T3, Voltage-gated N-type calcium channel alpha-1B subunit/Amyloid beta A4 precursor protein-binding family A member 1 (Homo sapiens, UniProt Q00975+Q02410); assay type: protein assay
T3 sequence (Q00975 whole entry): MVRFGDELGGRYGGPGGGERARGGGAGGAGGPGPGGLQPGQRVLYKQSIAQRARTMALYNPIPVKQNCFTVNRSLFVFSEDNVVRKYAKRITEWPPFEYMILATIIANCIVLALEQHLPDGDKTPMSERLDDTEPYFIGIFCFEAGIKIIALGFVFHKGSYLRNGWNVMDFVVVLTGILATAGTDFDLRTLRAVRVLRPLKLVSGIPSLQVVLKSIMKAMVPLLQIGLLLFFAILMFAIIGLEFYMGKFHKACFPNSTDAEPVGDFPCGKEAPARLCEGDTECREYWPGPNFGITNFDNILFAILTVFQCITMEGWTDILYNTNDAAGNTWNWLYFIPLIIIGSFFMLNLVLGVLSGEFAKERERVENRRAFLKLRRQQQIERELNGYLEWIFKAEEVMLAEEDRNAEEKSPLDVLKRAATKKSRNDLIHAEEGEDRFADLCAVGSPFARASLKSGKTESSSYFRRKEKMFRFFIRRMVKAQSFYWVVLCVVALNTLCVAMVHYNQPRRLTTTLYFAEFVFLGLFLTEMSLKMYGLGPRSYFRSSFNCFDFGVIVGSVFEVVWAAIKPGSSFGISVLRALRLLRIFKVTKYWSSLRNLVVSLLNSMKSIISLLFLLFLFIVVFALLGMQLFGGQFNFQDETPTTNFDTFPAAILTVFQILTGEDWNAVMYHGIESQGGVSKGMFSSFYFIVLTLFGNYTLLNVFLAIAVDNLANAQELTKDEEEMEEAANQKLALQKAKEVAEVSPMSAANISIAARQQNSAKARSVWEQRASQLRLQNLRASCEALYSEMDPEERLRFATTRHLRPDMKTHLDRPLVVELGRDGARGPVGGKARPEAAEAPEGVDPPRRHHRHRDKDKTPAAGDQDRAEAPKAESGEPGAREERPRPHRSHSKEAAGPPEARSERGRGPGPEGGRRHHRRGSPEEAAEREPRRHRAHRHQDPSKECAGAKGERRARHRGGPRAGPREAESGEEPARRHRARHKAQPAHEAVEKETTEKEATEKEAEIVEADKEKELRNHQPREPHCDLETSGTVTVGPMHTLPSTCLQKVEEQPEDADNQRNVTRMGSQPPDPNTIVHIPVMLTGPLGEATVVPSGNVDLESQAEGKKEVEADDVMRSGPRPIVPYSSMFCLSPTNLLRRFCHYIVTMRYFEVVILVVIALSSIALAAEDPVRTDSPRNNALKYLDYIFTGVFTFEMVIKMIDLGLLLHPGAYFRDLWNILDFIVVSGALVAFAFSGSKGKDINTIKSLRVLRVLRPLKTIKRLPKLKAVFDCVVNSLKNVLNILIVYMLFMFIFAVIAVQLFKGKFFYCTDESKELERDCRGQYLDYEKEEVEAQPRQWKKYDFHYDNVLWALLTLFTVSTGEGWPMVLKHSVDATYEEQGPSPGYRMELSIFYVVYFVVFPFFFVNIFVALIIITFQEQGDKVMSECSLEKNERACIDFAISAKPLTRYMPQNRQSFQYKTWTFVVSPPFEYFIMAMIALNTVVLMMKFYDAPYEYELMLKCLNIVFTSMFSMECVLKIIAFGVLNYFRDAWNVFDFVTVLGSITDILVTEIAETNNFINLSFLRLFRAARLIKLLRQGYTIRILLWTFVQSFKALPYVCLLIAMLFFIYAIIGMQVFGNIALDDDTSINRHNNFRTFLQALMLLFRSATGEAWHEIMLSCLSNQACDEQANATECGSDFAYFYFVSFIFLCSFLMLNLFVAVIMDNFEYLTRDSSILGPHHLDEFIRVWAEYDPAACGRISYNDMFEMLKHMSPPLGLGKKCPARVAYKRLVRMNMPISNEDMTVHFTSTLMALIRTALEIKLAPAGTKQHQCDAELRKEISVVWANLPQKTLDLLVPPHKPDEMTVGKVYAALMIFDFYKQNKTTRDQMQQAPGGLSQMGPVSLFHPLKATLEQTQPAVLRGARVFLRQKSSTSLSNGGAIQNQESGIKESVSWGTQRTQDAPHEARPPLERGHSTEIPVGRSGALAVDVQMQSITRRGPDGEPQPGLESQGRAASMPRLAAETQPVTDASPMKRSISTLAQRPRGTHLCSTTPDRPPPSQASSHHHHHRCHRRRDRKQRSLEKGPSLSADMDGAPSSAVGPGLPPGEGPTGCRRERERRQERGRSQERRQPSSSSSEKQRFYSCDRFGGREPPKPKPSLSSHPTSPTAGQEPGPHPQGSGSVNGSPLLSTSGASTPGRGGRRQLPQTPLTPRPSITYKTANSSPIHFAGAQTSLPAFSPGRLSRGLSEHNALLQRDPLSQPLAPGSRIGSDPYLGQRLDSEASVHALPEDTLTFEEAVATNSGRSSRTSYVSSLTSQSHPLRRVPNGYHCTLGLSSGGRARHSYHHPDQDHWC
T3 sequence (Q02410 whole entry): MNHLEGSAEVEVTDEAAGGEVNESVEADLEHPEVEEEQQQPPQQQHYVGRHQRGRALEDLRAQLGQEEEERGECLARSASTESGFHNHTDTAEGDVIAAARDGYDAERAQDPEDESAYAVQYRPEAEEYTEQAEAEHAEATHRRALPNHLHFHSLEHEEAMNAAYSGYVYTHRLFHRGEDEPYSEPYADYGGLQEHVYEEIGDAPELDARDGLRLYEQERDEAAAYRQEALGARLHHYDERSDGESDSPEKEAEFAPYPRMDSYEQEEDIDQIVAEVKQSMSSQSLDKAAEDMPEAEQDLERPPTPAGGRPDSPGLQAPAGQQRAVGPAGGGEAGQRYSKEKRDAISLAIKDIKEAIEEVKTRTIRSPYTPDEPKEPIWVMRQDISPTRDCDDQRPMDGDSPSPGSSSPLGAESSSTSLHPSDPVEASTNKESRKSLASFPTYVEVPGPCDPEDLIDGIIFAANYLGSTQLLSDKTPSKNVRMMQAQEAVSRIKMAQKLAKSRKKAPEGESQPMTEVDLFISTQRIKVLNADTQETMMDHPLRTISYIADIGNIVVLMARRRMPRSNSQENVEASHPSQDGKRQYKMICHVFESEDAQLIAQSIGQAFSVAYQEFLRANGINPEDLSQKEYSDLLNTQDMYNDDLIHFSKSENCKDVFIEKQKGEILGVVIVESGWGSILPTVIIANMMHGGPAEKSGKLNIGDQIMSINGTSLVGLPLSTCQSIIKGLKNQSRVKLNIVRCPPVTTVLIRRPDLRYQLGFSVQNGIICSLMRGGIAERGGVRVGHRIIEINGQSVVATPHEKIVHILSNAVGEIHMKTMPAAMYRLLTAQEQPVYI

[7] = biological target: T3, Voltage-gated N-type calcium channel alpha-1B subunit/Amyloid beta A4 precursor protein-binding family A member 1; assay type: protein assay; remark: listed apart in the source
[8] = biological target: Peroxisome proliferator-activated receptor gamma/Nuclear receptor coactivator 1 (Homo sapiens, UniProt P37231); assay: (§1) TR-FRET dose response biochemical High Throughput Screening assay for agonists of the steroid receptor coactivator 1 (SRC-1) recruitment by the peroxisome proliferator-activated receptor gamma (PPAR gamma): non-selective agonists. [Related pubchem assays (depositor defined):AID1300, AID1808, AID504735, AID631]; assay type: protein assay
[9] = biological target: Peroxisome proliferator-activated receptor gamma/Nuclear receptor coactivator 3 (Homo sapiens, UniProt P37231); assay: as §1, with “3 (SRC-3)” for “1 (SRC-1)”, “assays: 1301 (Confirmation screen.), 1048 (Primary screen.)]” for “assays (depositor defined):AID1300, AID1808, AID504735, AID631]”; assay type: functional
[10] = biological target: Peroxisome proliferator-activated receptor gamma/Nuclear receptor coactivator 2 (Homo sapiens, UniProt P37231); assay: TR-FRET dose response biochemical High Throughput Screening assay for agonists of the steroid receptor coactivator 2 (SRC-2) recruitment by the peroxisome proliferator-activated receptor gamma (PPAR gamma): non-selective agonists. [Related pubchem assays: 1297, 1032 ]; assay type: functional
[11] = biological target: T3, Voltage-gated N-type calcium channel alpha-1B subunit/Amyloid beta A4 precursor protein-binding family A member 1; assay: disruptors of Mint-PDZ/N-type channel peptide interaction – biochemical, HTRF, SAR follow-up (AID 2489); assay type: functional
[12] = biological target: Intestinal-type alkaline phosphatase (Homo sapiens, UniProt P09923); assay: human intestinal alkaline phosphatase activators, dose response, biochemical, luminescence, uHTS hits (AID 463120); assay type: functional
[13] = biological target: T4, Serine/threonine-protein phosphatase (Candida dubliniensis (strain CD36 / CBS 7987 / NCPF 3949 / NRRLY-17841) (Yeast), UniProt B9W6M3); assay: blockers of CaCl2-induced CDRE-lacZ signaling – S. cerevisiae, luminescence, secondary, dose response (AID 2388); assay type: functional, cell-based;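 note: yeast reporter cells carrying a calcineurin-responsive lacZ construct stimulated with calcium chloride; luminescent beta-galactosidase reporter signal in whole cells rather than isolated phosphatase activity; potency for inhibition where a drop in reporter signal means calcineurin blockade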
T4 sequence (B9W6M3 whole entry): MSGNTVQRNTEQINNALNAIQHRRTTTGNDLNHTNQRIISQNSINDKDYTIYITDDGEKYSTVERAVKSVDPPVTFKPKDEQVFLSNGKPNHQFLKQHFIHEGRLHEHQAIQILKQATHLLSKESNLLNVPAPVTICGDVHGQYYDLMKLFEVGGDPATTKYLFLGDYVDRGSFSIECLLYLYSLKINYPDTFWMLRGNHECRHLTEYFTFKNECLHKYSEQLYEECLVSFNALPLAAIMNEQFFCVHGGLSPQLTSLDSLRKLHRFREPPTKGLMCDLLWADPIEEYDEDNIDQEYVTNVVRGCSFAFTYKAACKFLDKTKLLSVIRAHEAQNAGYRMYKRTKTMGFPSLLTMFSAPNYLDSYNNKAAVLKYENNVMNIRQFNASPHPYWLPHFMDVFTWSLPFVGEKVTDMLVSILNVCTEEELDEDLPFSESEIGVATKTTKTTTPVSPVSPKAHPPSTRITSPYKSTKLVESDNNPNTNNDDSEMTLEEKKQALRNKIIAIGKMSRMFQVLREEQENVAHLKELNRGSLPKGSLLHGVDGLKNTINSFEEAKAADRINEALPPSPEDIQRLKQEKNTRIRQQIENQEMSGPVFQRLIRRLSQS

[14] = tested on: Streptococcus sp. 'group A'; assay: Streptococcus pyogenes SK(-)GAS viability under kanamycin – luminescence, BacTiterGlo, confirmation, counter-screen for streptokinase expression inhibitor project, dose response (AID 1900); assay type: functional, organism-based
[15] = tested on: Escherichia coli; assay: microbe, parasite or virus in culture
[16] = biological target: T5, Probable nicotinate-nucleotide adenylyltransferase (Staphylococcus aureus (strain N315), UniProt P65502); assay type: functional, Staphylococcus aureus subsp. aureus N315; details: read-out: IC50_Mean;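 for IC50 Mean: confirmatory dose-response retesting of NadD inhibitor hits first found in an ultra-high-throughput screen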
T5 sequence (P65502 whole entry): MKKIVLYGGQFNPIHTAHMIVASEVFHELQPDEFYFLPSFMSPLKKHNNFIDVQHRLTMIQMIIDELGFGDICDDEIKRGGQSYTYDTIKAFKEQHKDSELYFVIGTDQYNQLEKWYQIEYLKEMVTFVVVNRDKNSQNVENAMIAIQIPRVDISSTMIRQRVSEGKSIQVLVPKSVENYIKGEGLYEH

[17] = biological target: T6, Streptokinase A (Streptococcus pyogenes serotype M1, UniProt P10520); assay: viability-normalized secreted streptokinase activity reduction – plasminogen activation absorbance, OD405, dose response (AID 1914); assay type: functional, Streptococcus pyogenes M1 GAS;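 note: secreted streptokinase activity via plasminogen activation per viability signal from cell pellet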
T6 sequence (P10520 whole entry): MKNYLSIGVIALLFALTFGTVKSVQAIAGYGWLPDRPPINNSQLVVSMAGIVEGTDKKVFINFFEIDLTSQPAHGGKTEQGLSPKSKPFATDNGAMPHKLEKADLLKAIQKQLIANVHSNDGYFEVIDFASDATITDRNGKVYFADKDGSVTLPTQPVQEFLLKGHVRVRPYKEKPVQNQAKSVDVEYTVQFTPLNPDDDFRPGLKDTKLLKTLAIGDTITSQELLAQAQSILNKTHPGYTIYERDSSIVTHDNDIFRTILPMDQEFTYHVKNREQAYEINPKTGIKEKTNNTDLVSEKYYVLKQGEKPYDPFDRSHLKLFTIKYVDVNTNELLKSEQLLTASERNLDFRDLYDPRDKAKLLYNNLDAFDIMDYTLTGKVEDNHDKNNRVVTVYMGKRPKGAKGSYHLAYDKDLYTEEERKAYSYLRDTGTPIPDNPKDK

[18] = biological target: Genome polyprotein (dengue virus type 2, UniProt P29990); assay: flavivirus cap methylation enzyme inhibition – biochemical, confirmation dose response, primary screen (AID 588689); assay type: functional
[19] = tested on: Vero; assay: viability of Vero cells under compound – cytotoxicity control for flavivirus capping enzyme inhibitors (AID 588742); assay type: functional; details: Chlorocebus sabaeus
[20] = tested on: Streptococcus; assay: GAS UMAA2166 growth inhibition – luminescence, BacTiterGlo, counter-screen for streptokinase expression inhibitor project, dose response (AID 1915); assay type: functional, organism-based;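 note: potency for reduction of bacterial viability or growth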
[21] = biological target: ATP-dependent molecular chaperone HSP82 (Candida albicans (strain WO-1) (Yeast), UniProt C4YTQ8); assay: steroid-induced GRE reporter decrease in yeast – S. cerevisiae, luminescence, Hsp90 inhibitor project, dose response (AID 2400); assay type: functional, cell-based;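 note: beta-galactosidase luminescence from glucocorticoid response element reporter as proxy for Hsp90 function; inhibitor potency where signal loss means Hsp90 inhibition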
Sequence of ATP-dependent molecular chaperone HSP82 (C4YTQ8 whole entry): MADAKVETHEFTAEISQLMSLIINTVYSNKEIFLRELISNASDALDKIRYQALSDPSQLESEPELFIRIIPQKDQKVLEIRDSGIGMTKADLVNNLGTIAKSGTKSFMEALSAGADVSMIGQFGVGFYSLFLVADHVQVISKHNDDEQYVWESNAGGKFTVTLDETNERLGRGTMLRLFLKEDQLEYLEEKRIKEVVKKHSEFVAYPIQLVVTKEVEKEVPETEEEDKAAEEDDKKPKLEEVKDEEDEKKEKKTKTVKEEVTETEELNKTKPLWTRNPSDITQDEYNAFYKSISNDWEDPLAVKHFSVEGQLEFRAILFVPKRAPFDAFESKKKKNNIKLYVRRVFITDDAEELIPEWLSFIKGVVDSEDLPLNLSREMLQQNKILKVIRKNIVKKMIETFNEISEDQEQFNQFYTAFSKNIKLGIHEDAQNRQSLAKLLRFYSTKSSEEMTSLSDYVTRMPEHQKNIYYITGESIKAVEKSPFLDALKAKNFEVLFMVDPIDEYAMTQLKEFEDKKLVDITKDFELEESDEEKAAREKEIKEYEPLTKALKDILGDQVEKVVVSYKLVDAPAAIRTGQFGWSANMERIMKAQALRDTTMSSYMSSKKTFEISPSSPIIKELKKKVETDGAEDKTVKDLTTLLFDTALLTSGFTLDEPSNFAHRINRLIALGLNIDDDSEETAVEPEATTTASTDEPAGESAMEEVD

[22] = NIH-3T3 fibroblast cytotoxicity, dose response, cytotoxicity control, cell-based, fluorescence, Alamar Blue, secondary assay (AID 2327); assay type: functional;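 note: NIH-3T3 mouse fibroblasts cultured with fluconazole at 8 µg/mL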
[23] = biological target: T7, Aminopeptidase N (Plasmodium falciparum FcB1/Columbia, UniProt O96935); assay: malaria alanyl aminopeptidase activity blockers – biochemical, fluorogenic H-Leu-NHMec substrate, 1536-well (AID 1445); design: species or system Plasmodium falciparum 3D7, 3D7
T7 sequence (O96935 whole entry): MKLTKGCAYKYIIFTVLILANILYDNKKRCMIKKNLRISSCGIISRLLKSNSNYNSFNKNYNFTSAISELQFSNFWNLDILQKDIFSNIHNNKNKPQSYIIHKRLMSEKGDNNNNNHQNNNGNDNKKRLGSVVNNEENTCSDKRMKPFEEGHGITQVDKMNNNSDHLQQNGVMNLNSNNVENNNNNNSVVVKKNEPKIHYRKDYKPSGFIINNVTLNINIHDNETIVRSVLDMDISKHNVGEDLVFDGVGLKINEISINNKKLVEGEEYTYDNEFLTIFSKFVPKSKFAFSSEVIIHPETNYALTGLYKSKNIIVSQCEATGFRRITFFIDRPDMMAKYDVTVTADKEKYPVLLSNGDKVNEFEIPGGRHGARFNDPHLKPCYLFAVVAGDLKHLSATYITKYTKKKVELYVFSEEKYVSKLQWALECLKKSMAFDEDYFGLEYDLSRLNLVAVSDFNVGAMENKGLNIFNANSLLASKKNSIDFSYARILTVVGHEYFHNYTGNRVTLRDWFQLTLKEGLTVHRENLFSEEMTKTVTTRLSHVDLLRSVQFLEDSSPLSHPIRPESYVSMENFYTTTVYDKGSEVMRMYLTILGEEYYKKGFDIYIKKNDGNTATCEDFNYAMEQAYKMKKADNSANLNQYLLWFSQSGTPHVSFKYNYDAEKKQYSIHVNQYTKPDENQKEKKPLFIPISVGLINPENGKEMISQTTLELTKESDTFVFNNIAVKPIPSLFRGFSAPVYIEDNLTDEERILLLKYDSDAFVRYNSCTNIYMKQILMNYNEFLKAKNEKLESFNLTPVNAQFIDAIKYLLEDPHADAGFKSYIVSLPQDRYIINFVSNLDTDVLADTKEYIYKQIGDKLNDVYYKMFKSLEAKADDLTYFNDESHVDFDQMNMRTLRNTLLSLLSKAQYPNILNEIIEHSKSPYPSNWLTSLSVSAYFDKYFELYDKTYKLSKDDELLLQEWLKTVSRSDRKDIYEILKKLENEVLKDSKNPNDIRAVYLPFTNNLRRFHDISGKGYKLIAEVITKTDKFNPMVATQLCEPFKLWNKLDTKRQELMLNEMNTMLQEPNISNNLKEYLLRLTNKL

[24] = biological target: T5, Probable nicotinate-nucleotide adenylyltransferase; assay type: functional, Staphylococcus aureus subsp. aureus N315
[25] = fluconazole-exposed Candida albicans growth modulators – fluorescence, retest, confirmation (AID 2467); assay type: functional, cell-based

T1 sequence (P98170 whole entry): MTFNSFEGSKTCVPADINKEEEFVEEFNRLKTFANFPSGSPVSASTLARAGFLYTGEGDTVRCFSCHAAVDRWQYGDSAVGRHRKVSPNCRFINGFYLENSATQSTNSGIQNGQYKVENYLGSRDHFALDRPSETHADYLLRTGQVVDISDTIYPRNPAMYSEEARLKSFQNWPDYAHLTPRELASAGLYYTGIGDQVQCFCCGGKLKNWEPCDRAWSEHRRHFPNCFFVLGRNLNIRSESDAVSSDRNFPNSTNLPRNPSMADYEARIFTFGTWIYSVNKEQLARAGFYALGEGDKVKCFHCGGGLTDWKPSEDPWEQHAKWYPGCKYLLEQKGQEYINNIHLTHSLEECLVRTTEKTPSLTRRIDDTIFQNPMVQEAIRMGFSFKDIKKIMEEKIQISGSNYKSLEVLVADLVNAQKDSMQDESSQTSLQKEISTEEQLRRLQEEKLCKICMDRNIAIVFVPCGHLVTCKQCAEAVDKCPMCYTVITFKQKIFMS

Nc1ncnc(Sc2ccc(Cl)cc2)c1[N+](=O)[O-]
IC50 [1]: > 100 µM (not active)
IC50 [2]: > 100 µM (inactive)

Cc1c2c(=O)n(-c3nc4ccccc4s3)nc-2cc(O)n1Cc1ccccc1
IC50 [3]: 17.4 µM (active)
IC50 [4]: 4.32 µM (active)
AC50 [5]: 20.5 µM (active)
IC50 [6]: 3.01 µM (active)
IC50 [7]: > 50 µM (inactive)

O=C(CSc1ncnc2c1oc1ccccc12)NCc1ccc(F)cc1
EC50 [8]: 21.9 µM (inactive)
EC50 [9]: 83.1 µM (not active)
EC50 [10]: 20.5 µM (not active)

Cc1ccc(/C=C/C(=O)N2CCN(c3ncccn3)CC2)o1
IC50 [11]: > 56.8 µM (inactive)
IC50 [6]: 4.71 µM (active)
IC50 [7]: 4.77 µM (active)

O=C(CSc1nc[nH]n1)NCCc1ccccc1
EC50 [12]: > 100 µM (inactive)

Cc1ccc(N2C(=O)/C(=C\Nc3ccccc3-c3nnc(S)nc3O)c3ccccc3C2=O)cc1C
EC50 [8]: 26.6 µM (inactive)
EC50 [13]: > 180 µM (inactive)
EC50 [14]: 0.798 µM (active)
AC50 [15]: 33.6 µM (active)
IC50 [16]: 11.2 µM (active)
IC50 [4]: 3.26 µM (active)
EC50 [17]: > 150 µM (not active)
IC50 [18]: 31.5 µM (active)
CC50 [19]: > 40 µM (active)
EC50 [20]: 13.8 µM (active)
EC50 [21]: 23 µM (active)
EC50 [22]: 16 µM (inconclusive)
EC50 [9]: > 79.4 µM (not active)
IC50 [23]: 39.2 µM (active)
IC50 [24]: 3.94 µM (active)
EC50 [25]: 0.262 µM (active)
EC50 [10]: 13.2 µM (not active)

COc1cc2cnc(Cl)nc2cc1OC
IC50 [1]: > 100 µM (not active)
IC50 [2]: > 100 µM (inactive)
